Counter-ions that a name gives are not always drawn.
Molecular target: T1, Na^+ /Ca^2+ exchange system (Canis lupus familiaris, UniProt P23685)
T1 construct: Sarcolemmal vesicles which were prepared from the removed dog ventricular muscles; from tissue; host or cells: dog ventricular muscle, sarcolemmal vesicles
Assay: Inhibitory action on Na+/Ca2+ exchange system using myosarcolemmal vesicles (45Ca uptake)
Format: biochemical
Details: sarcolemmal vesicles from dog ventricular muscles; Na+-loaded; 20 μM [45Ca]-calcium chloride, pH 7.4, 10 seconds uptake
Protocol: Inhibitors Action on a Na^+ /Ca^2+ Exchange System using Myosarcolemmal Vesicles Sarcolemmal vesicles which were prepared from the removed dog ventricular muscles by referring to the method described in the literature (L. R. Jones, Methods, Enzymol., 1988, 157, pp. 85) were used. A Na^+ /Ca^2+ exchange activity using the sarcolemmal vesicles was measured by referring to the method described in the literature (K. D. Philipson, et al., J. Biol. Chem., 1980, 255, pp. 6880). First, the sarcolemmal vesicles were suspended in a sodium-containing solution [160 mM sodium chloride, 20 mM […] (pH 7.4)] to make up to a protein concentration of 1.5 mg/ml, and allowed to stand for an hour to load Na^+ in the sarcolemmal vesicles. To 2.5 μl of the sarcolemmal vesicles was added 125 μl of a [^45 Ca]-calcium chloride solution [20 μM [^45 Ca]-calcium chloride, 160 mM potassium chloride and 20 mM Mops-Tris (pH 7.4)], and after 10 seconds, 900 μl of an ice-cooled lanthanum chloride solution [10 mM lanthanum chloride, 160 mM potassium chloride and 20 mM Mops-Tris (pH 7.4)] was added. The sarcolemmal vesicles were recovered on a nitrocellulose filter by suction filtration and washed three times with 900 μl of a lanthanum chloride solution. The concentration of Ca^2+ uptake in the sarcolemmal vesicles was determined by measuring a ^45 Ca radioactivity by a scintillator. In addition, a Na^+ /Ca^2+ exchange activity-independent Ca^2+ uptake in the sarcolemmal vesicles was determined by carrying out the same procedure using a potassium-containing solution [160 mM potassium chloride, 20 mM Tris-hydrochloric acid (pH 7.4)] instead of the sodium-containing solution. The test compound was used as a dimethyl sulfoxide solution thereof, and its inhibitory effect was evaluated in comparison with the vehicle-treatedgroup. The IC50 value was determined from a dose inhibition curve of the test compound by using the minimum square method.

Row | Structure (SMILES) | IC50 [nM]
1 | Nc1cccc(N)c1Oc1ccc(OCc2ccccc2)cc1 [Example 14, 2-[4-(Benzyloxy)phenoxy]-1,3-phenylenediamine dihydrochloride] | 8200
2 | NC(=O)COc1ccc(Oc2ccc(OCc3ccccc3)cc2)c(N)c1 [Example 19, 3-Amino-4-[4-(benzyloxy)phenoxy]phenoxy-acetamide hydrochloride] | 14000

Now from value to compound:

Row | IC50 [nM] | Structure (SMILES)
3 | 2500 | CCOc1ccc(Oc2ccc(OCc3ccccc3)cc2)c(N)c1 [Example 17, 2-[4-(Benzyloxy)phenoxy-5-ethoxyaniline hydrochloride]
4 | 1100 | COc1ccc(Oc2ccc(OCc3ccccc3)cc2)c(N)c1 [Example 1, 2-[4-(Benzyloxy)phenoxy]-5-methoxyaniline hydrochloride]
5 | 2800 | COC(=O)COc1ccc(Oc2ccc(OCc3ccccc3)cc2)c(N)c1 [Example 20, Methyl 3-amino-4-[4-(benzyloxy)-phenoxy]phenoxyacetate hydrochloride]

Source: patent US6156801A, “2-phenoxyaniline derivatives” (Taisho Pharmaceutical Co., Ltd., priority 1997, dated 2000)
